Source: US8445509B2, “Fused heterocyclic derivatives and use thereof” (Takeda Pharmaceutical Company Limited, priority 2008, dated 2013)

How the values were obtained:
[1] = system: MV-4-11 cells; test: Antitumor test, MV-4-11 transplanted nude mouse; assay type: in vivo, nude mouse (BALB/c nu/nu); conditions: MV-4-11, dose 2 mg/kg, orally, 14 consecutive days
Experimental: (§1) Cancer cells were cultured in a culture medium containing 10% bovine fetal serum in an incubator at 37° C., 5% CO2. MKN-45 cells were treated with trypsin/EDTA and isolated. MKN-45 and MV-4-11 cells were washed with HBSS (HANK's Balanced Saline Solution). When MKN-45 cells were transplanted, they were adjusted with HBSS to a cell density of 1.2×10^8 cells/mL, and transplanted by subcutaneous injection of 0.05 mL of a mixed suspension (3×10^6 cells) of the cell suspension and the same amount of Matrigel into the abdomen of 6 or 7-week-old female nude mouse (BALB/c nu/nu, CLEA Japan, Inc.). When MV-4-11 cells were transplanted, they were adjusted with HESS to a cell density of 1.2×10^8 cells/mL, and transplanted by subcutaneous injection of 0.05 mL of a mixed suspension (3×10^6 cells) of the cell suspension and the same amount of Matrigel into the abdomen of 7-week-old female nude mouse (BALB/c nu/nu, CLEA Japan, Inc.). When the average tumor volume reached 100-250 mm^3, the mice were grouped, and various doses of test substance were orally administered for 14 consecutive days starting from the next day. The length of the major axis and the length of the minor axis of the tumor were measured over time and the tumor volume was calculated by tumor volume=major axis length×minor axis length×minor axis length×0.5. The ratio of an increase in the average tumor volume of the control group to an increase in the average tumor volume of the drug administration group was taken as the tumor growth rate (%) of the drug administration group. Table 5 showned MKN-45 tumor growth rate (%) and table 6 showned MV-4-11 tumor growth rate (%).

[2] = system: MKN-45 cells; test: Antitumor test, MKN-45 transplanted nude mouse; assay type: in vivo, nude mouse (BALB/c nu/nu); conditions: MKN-45, dose 2 mg/kg, orally, 14 consecutive days
Experimental: as §1

Cc1ccc(C(=O)Nc2ccc(Oc3ccc4nc(NC(=O)C5CC5)cn4c3)c(F)c2)c(=O)n1-c1ccc(F)cc1.Cl [Example 32, N-[4-({2-[(cyclopropylcarbonyl)amino]imidazo[1,2-a]pyridin-6-yl}oxy)-3-fluorophenyl]-1-(4-fluorophenyl)-6-methyl-2-oxo-1,2-dihydropyridine-3-carboxamide hydrochloride]
tumor growth rate (%) [1]: <0% | tumor growth rate (%) [2]: 14%
